Measured values: patent US20240270762A1, “PENICILLIN-BINDING PROTEIN INHIBITORS” (priority 2021, published 2024)
≈ marks a conversion by molar mass, not a printed value.

Tests used:
E. coli AG100A = test: Broth microdilution MIC in CAMHB; type: cell-based; settings: Escherichia coli, read-out: MIC E. coli AG100A
[1] = target: T1, PBP3 from Escherichia coli (K-12) (Escherichia coli, UniProt P0AD68); test: Bocillin-FL fluorescence polarization competition binding, E. coli PBP3
T1 construct: made in house
Method in brief: (§1)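 Purified PBP was preincubated with inhibitor (E. coli PBP3 1.5 μM, 30 min; P. aeruginosa PBP3 0.75 μM, A. baumannii PBP3 0.2 μM and PBP1a 1 μM, 15 min), then Bocillin-FL (0.1 μM; 0.05 μM for PBP1a) added and FP read up to 60 min. EC50 = 50% loss of bound probe.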

N. gonorrhoeae WHO L = test: Liquid broth MIC in Fastidious broth; settings: Neisseria gonorrhoeae, read-out: Minimum Inhibitory Concentration (MIC), N. gonorrhoeae WHO L
N. gonorrhoeae WHO G = test: Liquid broth MIC in Fastidious broth; settings: Neisseria gonorrhoeae, read-out: Minimum Inhibitory Concentration (MIC), N. gonorrhoeae WHO G
N. gonorrhoeae WHO Q = test: Liquid broth MIC in Fastidious broth; settings: Neisseria gonorrhoeae, read-out: Minimum Inhibitory Concentration (MIC), N. gonorrhoeae WHO Q
Method: Liquid broth-based assays were used for antibacterial testing of PBP inhibitors in Neisseria gonorrhoeae. Briefly, cryo-preserved bacterial cultures of clinical strains were streaked for isolation on Chocolate Agar (72 g/L (2×) GC Agar Base (BD #228950) and 2% (2×) Hemoglobin was autoclaved at 121° C. for 20 minutes to sterilize. Once cooled to ˜50° C. the 2×GC Agar Base and 2× Hemoglobin solutions are combined and 1% IsoVitaleX Enrichment (BD #211876) was added to the solution). Strains were incubated at 36° C. and 5% CO2 to allow growth of colonies, 24 hours before inoculum preparation. 2-fold serial dilutions of test compounds were conducted in a 96 well plate with a final volume of 75 μL per well at 2-fold the final desired concentration in Fastidious broth (Remel #R07664). For preparation of assay inoculum, a direct suspension was prepared by aseptically swabbing 10-15 colonies from agar plates into culture tubes containing 2 mL of fresh sterile saline. After the dilution plates were set up, direct suspensions were then diluted in a cuvette containing sterile saline and the optical density was measured at 600 nm. Inocula were diluted such that 75 μL of this culture in Fastidious broth results in a starting bacterial concentration of 5×10^5 CFU/mL when added to the dilution plates. The plates were incubated for ˜24 hours at 36° C. and 5% CO2.

[2] = system: N. gonorrhoeae ATCC 49226; test: Liquid broth MIC in Fastidious broth; settings: Neisseria gonorrhoeae, ATCC49226, read-out: Minimum Inhibitory Concentration (MIC), N. gonorrhoeae ATCC 49226
N. gonorrhoeae CDC-0197 = test: Liquid broth MIC in Fastidious broth; settings: Neisseria gonorrhoeae, CDC0197, read-out: Minimum Inhibitory Concentration (MIC), N. gonorrhoeae CDC-0197
[3] = target: T2, PBP3 from Pseudomonas aeruginosa (PAO1) (Pseudomonas aeruginosa, UniProt G3XD46); test: Bocillin-FL fluorescence polarization competition binding, P. aeruginosa PBP3; settings: Binding affinity to P. aeruginosa PBP3; fluorescence polarization competition binding assay using Bocillin-FL; read-out: P. aeruginosa PBP3 Potency
T2 construct: made in house
Method in brief: as §1

T1 sequence (P0AD68 1-577): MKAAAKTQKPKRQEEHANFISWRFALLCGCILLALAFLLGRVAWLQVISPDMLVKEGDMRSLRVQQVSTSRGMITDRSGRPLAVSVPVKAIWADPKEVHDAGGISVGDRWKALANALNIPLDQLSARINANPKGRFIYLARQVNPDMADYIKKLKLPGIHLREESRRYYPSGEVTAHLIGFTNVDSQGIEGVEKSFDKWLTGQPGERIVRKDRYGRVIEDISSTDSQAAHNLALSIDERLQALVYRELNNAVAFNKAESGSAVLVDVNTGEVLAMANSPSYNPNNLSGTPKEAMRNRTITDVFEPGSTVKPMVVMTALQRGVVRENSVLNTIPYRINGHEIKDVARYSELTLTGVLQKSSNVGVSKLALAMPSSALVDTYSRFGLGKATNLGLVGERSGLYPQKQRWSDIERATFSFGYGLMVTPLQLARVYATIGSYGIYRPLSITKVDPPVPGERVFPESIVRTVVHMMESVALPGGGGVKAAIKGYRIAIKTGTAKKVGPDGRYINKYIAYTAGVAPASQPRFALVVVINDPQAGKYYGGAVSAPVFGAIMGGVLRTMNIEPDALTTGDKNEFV
T2 sequence (G3XD46 whole entry): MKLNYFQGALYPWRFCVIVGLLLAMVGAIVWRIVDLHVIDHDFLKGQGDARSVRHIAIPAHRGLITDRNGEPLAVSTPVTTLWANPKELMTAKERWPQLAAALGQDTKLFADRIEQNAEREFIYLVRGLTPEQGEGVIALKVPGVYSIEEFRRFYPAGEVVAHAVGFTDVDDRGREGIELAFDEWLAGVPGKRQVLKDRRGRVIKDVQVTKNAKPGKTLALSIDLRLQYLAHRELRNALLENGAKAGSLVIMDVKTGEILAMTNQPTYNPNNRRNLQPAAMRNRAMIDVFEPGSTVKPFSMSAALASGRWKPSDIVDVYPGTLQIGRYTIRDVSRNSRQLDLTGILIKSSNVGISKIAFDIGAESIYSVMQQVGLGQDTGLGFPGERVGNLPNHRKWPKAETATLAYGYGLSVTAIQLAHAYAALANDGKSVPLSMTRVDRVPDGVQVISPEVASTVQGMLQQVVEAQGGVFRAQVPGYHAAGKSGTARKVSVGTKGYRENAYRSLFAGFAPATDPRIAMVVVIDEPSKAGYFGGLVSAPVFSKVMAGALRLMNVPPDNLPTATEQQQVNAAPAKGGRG

| SMILES | MIC (E. coli AG100A) | EC50 [1] | MIC (N. gonorrhoeae WHO L) | MIC (N. gonorrhoeae WHO G) | MIC (N. gonorrhoeae WHO Q) | MIC [2] | MIC (N. gonorrhoeae CDC-0197) | IC50 [3] |
| --- | --- | --- | --- | --- | --- | --- | --- | --- |
| O=C(O)c1cccc2c1OB(O)[C@@H](NC(=O)[C@@H](NC(=O)c1ccn[nH]c1=O)c1ccc(P(=O)(O)O)cc1)C2 (single isomer, unassigned) [Example 177] | > 128 µg/mL | 10 to 50 µM | 4 to 8 µg/mL (≈ 7.38 to 14.8 µM) | < 1 µg/mL | 4 to 8 µg/mL (≈ 7.38 to 14.8 µM) | 1 to 2 µg/mL (≈ 1.84 to 3.69 µM) | 1 to 2 µg/mL (≈ 1.84 to 3.69 µM) | < 10 µM |
| O=C(N[C@@H](C(=O)N[C@H]1Cc2cccc(C(=O)O)c2OB1O)c1ccc(P(=O)(O)O)cc1)c1ccc(C(F)(F)F)cn1 (single isomer, unassigned) [Example 193] | 8 to 16 µg/mL (≈ 13.5 to 27 µM) | < 10 µM | 4 to 8 µg/mL (≈ 6.74 to 13.5 µM) | < 1 µg/mL | 1 to 2 µg/mL (≈ 1.69 to 3.37 µM) | < 1 µg/mL | < 1 µg/mL | < 10 µM |
| O=C(O)c1cccc2c1OB(O)[C@@H](NC(=O)C(NC(=O)c1ncccc1Cl)c1ccc(P(=O)(O)O)cc1)C2 (stereo partly drawn) [Example 183, (3R)-3-(2-(3-chloropicolinamido)-2-(4-phosphonophenyl)acetamido)-2-hydroxy-3,4-dihydro-2H-benzo[e][1,2]oxaborinine-8-carboxylic acid] | > 128 µg/mL | 50 to 250 µM | 16 to 32 µg/mL (≈ 28.6 to 57.2 µM) | 4 to 8 µg/mL (≈ 7.15 to 14.3 µM) | 16 to 32 µg/mL (≈ 28.6 to 57.2 µM) | 4 to 8 µg/mL (≈ 7.15 to 14.3 µM) | 16 to 32 µg/mL (≈ 28.6 to 57.2 µM) | < 10 µM |
| O=C(O)c1cccc2c1OB(O)[C@@H](NC(=O)[C@@H](NC(=O)N1CCCCC1=O)c1ccc(P(=O)(O)O)cc1)C2 [Example 36, (R)-2-hydroxy-3-((S)-2-(2-oxopiperidine-1-carboxamido)-2-(4-phosphonophenyl)acetamido)-3,4-dihydro-2H-benzo[39e][1,2]oxaborinine-8-carboxylic acid] | > 128 µg/mL | 50 to 250 µM | 16 to 32 µg/mL (≈ 29.3 to 58.7 µM) | 4 to 8 µg/mL (≈ 7.34 to 14.7 µM) | 16 to 32 µg/mL (≈ 29.3 to 58.7 µM) | 16 to 32 µg/mL (≈ 29.3 to 58.7 µM) | 16 to 32 µg/mL (≈ 29.3 to 58.7 µM) | 50 to 250 µM |
| O=C(O)c1cccc2c1OB(O)[C@@H](NC(=O)[C@@H](NC(=O)N1CCNC1=O)c1ccc(P(=O)(O)O)cc1)C2 [Example 39, (R)-2-hydroxy-3-((S)-2-(2-oxoimidazolidine-1-carboxamido)-2-(4-phosphonophenyl)acetamido)-3,4-dihydro-2H-benzo[e][1,2]oxaborinine-8-carboxylic acid] | > 128 µg/mL | 50 to 250 µM | 16 to 32 µg/mL (≈ 30.1 to 60.1 µM) | < 1 µg/mL | 4 to 8 µg/mL (≈ 7.52 to 15 µM) | 1 to 2 µg/mL (≈ 1.88 to 3.76 µM) | 1 to 2 µg/mL (≈ 1.88 to 3.76 µM) | 10 to 50 µM |
| O=C(O)c1cccc2c1OB(O)[C@@H](NC(=O)[C@H](NC(=O)[C@@H]1CCCN1)c1ccc(P(=O)(O)O)cc1)C2 [Example 173, (R)-2-hydroxy-3-((R)-2-(4-phosphonophenyl)-2-((S)-pyrrolidine-2-carboxamido)acetamido)-3,4-dihydro-2H-benzo[e][1,2]oxaborinine-8-carboxylic acid] | 32 to 64 µg/mL (≈ 61.9 to 124 µM) | 50 to 250 µM | 16 to 32 µg/mL (≈ 30.9 to 61.9 µM) | 4 to 8 µg/mL (≈ 7.73 to 15.5 µM) | 16 to 32 µg/mL (≈ 30.9 to 61.9 µM) | 16 to 32 µg/mL (≈ 30.9 to 61.9 µM) | 16 to 32 µg/mL (≈ 30.9 to 61.9 µM) | 10 to 50 µM |
| O=C(O)c1cccc2c1OB(O)[C@@H](NC(=O)C(NC(=O)N1CCCNC1=O)c1ccc(P(=O)(O)O)cc1)C2 (stereo partly drawn) [Example 56, (3R)-2-hydroxy-3-(2-(2-oxohexahydropyrimidine-1-carboxamido)-2-(4-phosphonophenyl)acetamido)-3,4-dihydro-2H-benzo[e][1,2]oxaborinine-8-carboxylic acid] | 32 to 64 µg/mL (≈ 58.6 to 117 µM) | 10 to 50 µM | 16 to 32 µg/mL (≈ 29.3 to 58.6 µM) | 1 to 2 µg/mL (≈ 1.83 to 3.66 µM) | 4 to 8 µg/mL (≈ 7.32 to 14.6 µM) | 1 to 2 µg/mL (≈ 1.83 to 3.66 µM) | 4 to 8 µg/mL (≈ 7.32 to 14.6 µM) | < 10 µM |
| Nc1ncc(C(=O)N[C@@H](C(=O)N[C@H]2Cc3cccc(C(=O)O)c3OB2O)c2ccc(P(=O)(O)O)cc2)s1 (racemic) [Example 50, (R)-3-((S)-2-(2-aminothiazole-5-carboxamido)-2-(4-phosphonophenyl)acetamido)-2-hydroxy-3,4-dihydro-2H-benzo[e][1,2]oxaborinine-8-carboxylic acid and (R)-3-((R)-2-(2-aminothiazole-5-carboxamido)-2-(4-phosphonophenyl)acetamido)-2-hydroxy-3,4-dihydro-2H-benzo[e][1,2]oxaborinine-8-carboxylic acid] | > 128 µg/mL | 50 to 250 µM | 16 to 32 µg/mL (≈ 29.3 to 58.6 µM) | 1 to 2 µg/mL (≈ 1.83 to 3.66 µM) | 16 to 32 µg/mL (≈ 29.3 to 58.6 µM) | 4 to 8 µg/mL (≈ 7.32 to 14.6 µM) | 16 to 32 µg/mL (≈ 29.3 to 58.6 µM) | < 10 µM |
